Experimental data reported in paper PMC8192900, “Label-free high-throughput screening assay for the identification of norepinephrine transporter (NET/SLC6A2) inhibitors” (Scientific Reports, 2021).
Read-outs that look alike come from different tables or passages of the source.

Assays:
JumpIn-NET cells [1] = assay: TRACT assay (xCELLigence impedance): substrate-induced cellular response, apparent substrate potency; type: cell-based, human; conditions: for Decrease of apparent potency in dox-treated compared to vehicle-treated cells: +dox vs −dox JumpIn-NET cells; for EC50: Homo sapiens
JumpIn-NET cells [2] = assay: Effect of NET inhibitor alone on normalized Cell Index during 1 h pretreatment (xCELLigence); type: cell-based, human; conditions: +dox JumpIn-NET cells; for Effect on nCI during pretreatment at highest tested concentration: 10 µM
[3] = doxycycline-treated (+dox) JumpIn-NET cells, 1 h pretreatment with 1 µM nisoxetine, read-out: Apparent potency pEC50 ± SEM (converted)
[4] = vehicle-treated (−dox) JumpIn-NET cells, no nisoxetine pretreatment, net AUC first 30 min, read-out: Apparent potency pEC50 ± SEM (converted)

| Structure (SMILES) | Decrease of apparent potency in dox-treated compared to vehicle-treated cells (JumpIn-NET cells [1]) | EC50 (JumpIn-NET cells [1]; [3]) [nM] | EC50 (JumpIn-NET cells [1]; [4]) [nM] | Effect on nCI during pretreatment at highest tested concentration (JumpIn-NET cells [2]) | further results |
| --- | --- | --- | --- | --- | --- |
| CNC[C@H](O)c1ccc(O)c(O)c1.O=C(O)C(O)C(O)C(=O)O [EP, (−)-epinephrine (+)-bitartrate salt] | decreased tenfold |  |  |  | Basal response in vehicle-pretreated cells, higher than that of NE (JumpIn-NET cells [1]; 1 µM substrate (EC20), +dox cells, no inhibitor): approximately 60%; EC50 (JumpIn-NET cells [1]; read-out: Apparent potency pEC50 ± SEM, doxycycline-treated (+dox) JumpIn-NET cells, 1 h pretreatment with 1 µM nisoxetine (converted)): 501 nM; EC50 (JumpIn-NET cells [1]; read-out: Apparent potency pEC50 ± SEM, doxycycline-treated (+dox) JumpIn-NET cells, no nisoxetine pretreatment (converted)): 3980 nM; EC50 (JumpIn-NET cells [1]; read-out: Apparent potency pEC50 ± SEM, vehicle-treated (−dox) JumpIn-NET cells, no nisoxetine pretreatment (converted), net AUC first 30 min): 398 nM |
| CC(NC(C)(C)C)C(=O)c1cccc(Cl)c1.Cl (centres unmarked) [Bupropion, bupropion hydrochloride] |  |  |  | transient increase in nCI |  |
| CNCC[C@@H](Oc1ccccc1C)c1ccccc1.Cl [Atomoxetine, atomoxetine hydrochloride] |  |  |  | transient increase in nCI |  |
| Cl.NCCc1ccc(O)c(O)c1 [DA, dopamine hydrochloride] | twofold lower | 39800 | 7940 |  |  |
| CNCCC(Oc1ccccc1OC)c1ccccc1.Cl (centres unmarked) [Nisoxetine, Nisoxetine hydrochloride] |  |  |  | transient increase in nCI | Effect on nCI during the 1 h pretreatment (JumpIn-NET cells [2]; 1 µM): did not affect the nCI |
